# From US11292791B2 (priority 2017, dated 2022)
# Target: BRD4 (Homo sapiens (Human), UniProt O60885)
# Conditions: read-out: BRD4 IC50 (μM gmean)
row,Compound,IC50 [µM]
1,"COC(=O)N1c2ccc3c(nc(Cc4ccccc4)n3[C@@H]3CC[C@@H](C(=O)O)OC3)c2CC[C@@H]1C [Example 72, (2S,5R)-5-((S)-2-benzyl-6-(methoxycarbonyl)-7-methyl-6,7,8,9-tetrahydro-3H-imidazo[4,5-f]quinolin-3-yl)tetrahydro-2H-pyran-2-carboxylic Acid]",1 to 1000
2,COC(=O)N1c2ccc3c(nc(CCc4ccccc4)n3C3CC4(CNC4)C3)c2CC[C@@H]1C [Example 81],1 to 1000
3,COC(=O)N1c2ccc3c(nc(Cc4ccccc4)n3C3CC4CCC(C3)N4)c2CC[C@@H]1C (some centres unmarked) [Example 83],1 to 1000
4,COC(=O)N1c2ccc3c(nc(Cc4ccccc4)n3C[C@@H]3CCCNC3)c2CC[C@@H]1C [Example 86],1 to 1000
5,COC(=O)N1c2ccc3c(nc(Cc4ccccc4)n3C[C@H]3CCCNC3)c2CC[C@@H]1C [Example 87],1 to 1000
6,COC(=O)N1c2ccc3c(nc(Cc4ccccc4)n3C3CCNCC3)c2CC[C@@H]1C [Example 90],1 to 1000
7,COC(=O)N1c2ccc3c(nc(Cc4ccccc4)n3CC3CCNCC3)c2CC[C@@H]1C [Example 93],1 to 1000
8,COC(=O)N1c2ccc3c(nc(Cc4ccccc4)n3C3CC4(CNC4)C3)c2CC[C@@H]1C [Example 94],1 to 1000
9,COC(=O)N1c2ccc3c(nc(Cc4ccccc4)n3C3CC4(CCNCC4)C3)c2CC[C@@H]1C [Example 95],1 to 1000
10,COC(=O)N1c2ccc3c(nc(Cc4ccccc4)n3C3CCC4(CC3)CNC4)c2CC[C@@H]1C [Example 96],1 to 1000
11,COC(=O)N1c2ccc3c(nc(Cc4ccccc4)n3CC3CNC3)c2CC[C@@H]1C [Example 97],1 to 1000
12,COC(=O)N1c2ccc3c(nc(Cc4ccccc4)n3C3CC4CNCC4C3)c2CC[C@@H]1C (some centres unmarked) [Example 98],1 to 1000
13,COC(=O)N1c2ccc3c(nc(Cc4cccc(OC(C)C)c4)n3C3CC4(CNC4)C3)c2CC[C@@H]1C [Example 99],1 to 1000
14,COC(=O)N1c2ccc3c(nc(CCc4cccc(OC)c4)n3C3CC4(CNC4)C3)c2CC[C@@H]1C [Example 100],1 to 1000
15,COC(=O)N1c2ccc3c(nc(CCc4cccc(OC(C)C)c4)n3C3CC4(CNC4)C3)c2CC[C@@H]1C [Example 101],1 to 1000
16,COC(=O)N1c2ccc3c(nc(Cc4cccc(F)c4)n3C3CCNCC3)c2CC[C@@H]1C [Example 102],1 to 1000
17,COC(=O)N1c2ccc3c(nc(Cc4ccc(OC)c(F)c4)n3C3CCNCC3)c2CC[C@@H]1C [Example 103],1 to 1000
18,COC(=O)N1c2ccc3c(nc(CCc4ccccc4)n3C3CCNCC3)c2CC[C@@H]1C [Example 104],1 to 1000
19,COC(=O)N1c2ccc3c(nc(Cc4ccc(OC)cc4)n3C3CCNCC3)c2CC[C@@H]1C [Example 107],1 to 1000
20,COC(=O)N1c2ccc3c(nc(Cc4ccc(OC)cc4)n3C3CCC4(CC3)CNC4)c2CC[C@@H]1C [Example 108],1 to 1000

row,Compound,IC50 [µM]
1,COC(=O)N1c2ccc3c(nc(CCn4cccn4)n3C3CCC4(CC3)CNC4)c2CC[C@@H]1C [Example 109],1 to 1000
2,COC(=O)N1c2ccc3c(nc(Cc4cccc(OC)c4)n3C3CC4(CNC4)C3)c2CC[C@@H]1C [Example 110],1 to 1000
3,"COC(=O)N1c2ccc3c(nc(Cc4ccccc4)n3[C@H]3CCC34CCNCC4)c2CC[C@@H]1C [Example 111, methyl (S)-2-benzyl-7-methyl-3-((S)-7-azaspiro[3.5]nonan-1-yl)-3,7,8,9-tetrahydro-6H-imidazo[4,5-f]quinoline-6-carboxylate]",1 to 1000
4,"COC(=O)N1c2ccc3c(nc(Cc4ccccc4)n3[C@@H]3CCC34CCNCC4)c2CC[C@@H]1C [Example 112, methyl (S)-2-benzyl-7-methyl-3-((R)-7-azaspiro[3.5]nonan-1-yl)-3,7,8,9-tetrahydro-6H-imidazo[4,5-f]quinoline-6-carboxylate]",1 to 1000
5,"COC(=O)N1c2ccc3c(nc(C[C@@H](C(=O)O)c4ccccc4)n3C)c2CC[C@@H]1C [Example 133, (2R)-3-[(7S)-6-(methoxycarbonyl)-3,7-dimethyl-3H,6H,7H,8H,9H-imidazo[4,5-f]quinolin-2-yl]-2-phenylpropanoic Acid]",1 to 1000
6,"COC(=O)N1c2ccc3c(nc(C[C@H](C(=O)O)c4ccccc4)n3C)c2CC[C@@H]1C [Example 134, (2S)-3-[(7S)-6-(methoxycarbonyl)-3,7-dimethyl-3H,6H,7H,8H,9H-imidazo[4,5-f]quinolin-2-yl]-2-phenylpropanoic Acid]",1 to 1000
7,"COC(=O)N1c2ccc3c(nc(C[C@H](C(=O)O)c4ccccc4)n3C)c2CC[C@@H]1C [Example 135, (S)-3-((S)-6-(methoxycarbonyl)-3,7-dimethyl-6,7,8,9-tetrahydro-3H-imidazo[4,5-f]quinolin-2-yl)-2-phenylpropanoic Acid]",1 to 1000
8,"COC(=O)N1c2ccc3c(nc(C[C@@H](C(=O)O)c4ccccc4)n3C)c2CC[C@@H]1C [Example 136, (R)-3-((S)-6-(methoxycarbonyl)-3,7-dimethyl-6,7,8,9-tetrahydro-3H-imidazo[4,5-f]quinolin-2-yl)-2-phenylpropanoic Acid]",1 to 1000
9,"COC(=O)N1c2ccc3c(nc(C[C@@H](C(=O)O)c4ccccc4)n3CCN(C)C)c2CC[C@@H]1C [Example 137, (R)-3-((S)-3-(2-(dimethylamino)ethyl)-6-(methoxycarbonyl)-7-methyl-6,7,8,9-tetrahydro-3H-imidazo[4,5-f]quinolin-2-yl)-2-phenylpropanoic Acid]",1 to 1000
10,"COC(=O)N1c2ccc3c(nc(C[C@H](C(=O)O)c4ccccc4)n3CCN(C)C)c2CC[C@@H]1C [Example 138, (S)-3-((S)-3-(2-(dimethylamino)ethyl)-6-(methoxycarbonyl)-7-methyl-6,7,8,9-tetrahydro-3H-imidazo[4,5-f]quinolin-2-yl)-2-phenylpropanoic Acid]",1 to 1000
11,COC(=O)N1c2ccc3c(nc(CCn4cccn4)n3CCN3CCOCC3)c2CC[C@@H]1C [Example 226],1 to 1000
12,COC(=O)N1c2ccc3c(nc(CCn4cccn4)n3CCN3CCN(C)CC3)c2CC[C@@H]1C [Example 227],1 to 1000
13,COC(=O)N1c2ccc3c(nc(CCn4cccn4)n3CCN3CC4(COC4)C3)c2CC[C@@H]1C [Example 228],1 to 1000
14,COC(=O)N1c2ccc3c(nc(CCn4ccccc4=O)n3CCN3CCNCC3)c2CC[C@@H]1C [Example 229],1 to 1000
15,COC(=O)N1c2ccc3c(nc(CCn4ccccc4=O)n3CCN3CCN(C)CC3)c2CC[C@@H]1C [Example 230],1 to 1000
16,"COC(=O)N1c2ccc3c(nc(CCc4ccccc4)n3CCN(C)C)c2CC[C@@H]1C [Example 242, methyl-(7S)-3-[2-(dimethylamino)ethyl]-7-methyl-2-(2-phenylethyl)-3H,6H,7H,8H,9H-imidazo[4,5-f]quinoline-6-carboxylate]",1 to 1000
17,COC(=O)N1c2ccc3c(nc(CCc4ccccc4)n3CCN3CCOCC3)c2CC[C@@H]1C [Example 245],1 to 1000
18,COC(=O)N1c2ccc3c(nc(C)n3CCN3CCOCC3)c2CC[C@@H]1C [Example 248],1 to 1000
19,COC(=O)N1c2ccc3c(nc(C(C)(C)C)n3CCN3CCOCC3)c2CC[C@@H]1C [Example 249],1 to 1000
20,COC(=O)N1c2ccc3c(nc(-c4ccccc4)n3CCN3CCOCC3)c2CC[C@@H]1C [Example 250],1 to 1000

row,Compound,IC50 [µM]
1,COC(=O)N1c2ccc3c(nc(CCC4CC4)n3CCN3CCOCC3)c2CC[C@@H]1C [Example 251],1 to 1000
2,COC(=O)N1c2ccc3c(nc(Cc4ccccc4)n3CC3CCS(=O)(=O)CC3)c2CC[C@@H]1C [Example 253],1 to 1000
3,COC(=O)N1c2ccc3c(nc(Cc4ccccc4)n3C3CCS(=O)(=O)CC3)c2CC[C@@H]1C [Example 254],1 to 1000
4,COC(=O)N1c2ccc3c(nc(Cc4ccccc4)n3[C@H]3CC[C@H](C#N)CC3)c2CC[C@@H]1C [Example 255],1 to 1000
5,COC(=O)N1c2ccc3c(nc(Cc4ccccc4)n3[C@H]3CC[C@@H](C#N)CC3)c2CC[C@@H]1C [Example 256],1 to 1000
6,COC(=O)N1c2ccc3c(nc(Cc4ccccc4)n3C3CCN(C)CC3)c2CC[C@@H]1C [Example 257],1 to 1000
7,COC(=O)N1c2ccc3c(nc(Cn4ccccc4=O)n3C3CCOCC3)c2CC[C@@H]1C [Example 259],1 to 1000
8,COC(=O)N1c2ccc3c(nc(Cn4ccccc4=O)n3[C@H]3CCCOC3)c2CC[C@@H]1C [Example 260],1 to 1000
9,COC(=O)N1c2ccc3c(nc(CCn4ccccc4=O)n3CCCS(C)(=O)=O)c2CC[C@@H]1C [Example 261],1 to 1000
10,COC(=O)N1c2ccc3c(nc(CCn4cccn4)n3C3CCS(=O)(=O)CC3)c2CC[C@@H]1C [Example 262],1 to 1000
11,COC(=O)N1c2ccc3c(nc(Cc4ccccc4)n3C3CCCCC3)c2CC[C@@H]1C [Example 263],1 to 1000
12,"COC(=O)N1c2ccc3c(nc(Cc4ccccc4)n3[C@H]3CCCS(=O)(=O)C3)c2CC[C@@H]1C [Example 264, methyl (S)-2-benzyl-3-((S)-1,1-dioxidotetrahydro-2H-thiopyran-3-yl)-7-methyl-3,7,8,9-tetrahydro-6H-imidazo[4,5-f]quinoline-6-carboxylate]",1 to 1000
13,"COC(=O)N1c2ccc3c(nc(Cc4ccccc4)n3[C@@H]3CCCS(=O)(=O)C3)c2CC[C@@H]1C [Example 265, methyl (S)-2-benzyl-3-((R)-1,1-dioxidotetrahydro-2H-thiopyran-3-yl)-7-methyl-3,7,8,9-tetrahydro-6H-imidazo[4,5-f]quinoline-6-carboxylate]",1 to 1000
14,COC(=O)N1c2ccc3c(nc(CCn4cccn4)n3CCCS(C)(=O)=O)c2CC[C@@H]1C [Example 270],1 to 1000
15,COC(=O)N1c2ccc3c(nc(CCn4cccn4)n3CCS(C)(=O)=O)c2CC[C@@H]1C [Example 271],1 to 1000
16,COC(=O)N1c2ccc3c(nc(CCn4ccccc4=O)n3CCN3CCOCC3)c2CC[C@@H]1C [Example 272],1 to 1000
17,COC(=O)N1c2ccc3c(nc(CCn4ccccc4=O)n3CCS(C)(=O)=O)c2CC[C@@H]1C [Example 273],1 to 1000
18,COC(=O)N1c2ccc3c(nc(CCn4nccn4)n3C3CCS(=O)(=O)CC3)c2CC[C@@H]1C [Example 275],1 to 1000
19,COC(=O)N1c2ccc3c(nc(Cc4ccccc4)n3C3CCN(c4nnn[nH]4)CC3)c2CC[C@@H]1C [Example 278],1 to 1000
